Here are results for four molecules from patent US12280090B2, “Antimicrobial peptides” (priority 2018, dated 2025).

SMILES strings stand for the structures. In brackets after ≈: the same amount, converted by molar mass. Read-outs that look alike come from different tables or passages of the source. Peptide text beside a SMILES is read from it.

Broadly, the MBC is the lowest tested concentration that kills the bacteria rather than only halting them. The low end stands for more potent killing, the high end for less potent killing. The MIC is the lowest concentration that inhibits growth of the organism. A high value points to weaker potency.

Type in all cases: cell-based
For assay [1], the system named is Escherichia coli—Extended spectrum beta-lactamase. The procedure:
(§1) Independent experiments were conducted with four strains of E. coli, including ATCC E. coli (Escherichia coli—ATCC 25922 “wild type”); ESBL E. coli (Escherichia coli—Extended spectrum beta-lactamase); CPO E. coli (KPC) (Escherichia coli—Carbapenemase-producing organism; Klebsiella pneumoniae carbapenemase); and CPO E. coli (NDM) (Escherichia coli—Carbapenemase-producing organism; New-Dehli Metallobetalactamase).
(§2) The ATCC (American Type Culture Collection) strains received from Cedarlane. Multi drug resistant (MDR) strains, as clinical isolates, were received from the laboratory of Dr. Linda Hoang.
(§3) Putative antimicrobial peptides were synthesized by GeneScript. A-list antimicrobial peptides re-synthesized by GeneScript. P2_CCH, P5_CCH, and P5_CCH_A19K were each synthesized under two conditions: standard synthesis using TFA, and the other with TFA-removal using acetate as a counter-ion. A MIC method, adapted for use with cationic antimicrobial peptides, was used to evaluate MIC antimicrobial activity (Hancock 1999).
(§4) The following data are presented to show the activity (MIC/MBC in μg/mL) of certain antimicrobial peptides described herein relative to a modified/synthetic version having a specified substitution. While data presented in tables above may be presented again, or may be represented in data provided in the tables below, such duplication is believed to assist the reader in readily noting comparisons. Different Run Numbers noted in the following tables denotes experiments conducted on different days, with each run reflecting multiple n values.

The subject of assay [2] is Escherichia coli—Carbapenemase-producing organism; Klebsiella pneumoniae carbapenemase. The procedure:
as §1, §2, §3, §4

Assay [3] deals with Escherichia coli—Carbapenemase-producing organism; New-Dehli Metallobetalactamase. The procedure: as §1, §2, §3, §4
In assay [4] the test system is Escherichia coli—ATCC 25922 “wild type”. The procedure: as §1, §2, §3, §4
Assay [5] relates to Salmonella Heidelberg (MDR).
From the text: as §2, §3, §4

The next assay concerns Salmonella Enteritidis.
From the text: as §3, §4

Assay [6] has as its system Methicillin resistant Staphylococcus aureus. The procedure:
(§5) Independent experiments were conducted with different strains of Staphylococcus aureus—ATCC 29213 “wild type”; and Staphylococcus aureus—Methicillin resistant Staphylococcus aureus.
as §2, §3, §4

Assay [7] has as its system Staphylococcus aureus—ATCC 29213 “wild type”. The procedure: as §5, §2, §3, §4
In assay [8] the test system is Streptococcus pyogenes: unknown strain, hospital isolate. The conditions noted are these: unknown strain, hospital isolate. A digest of the protocol: (§6)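 MIC and MBC were run by broth microdilution adapted from Hancock cationic-AMP and CLSI methods, in Mueller Hinton broth (+5% lysed horse blood for S. pyogenes) at about 5×10^5 CFU/mL. Peptides came from two-fold 10× stocks (2560–5 μg/mL) and were incubated 16-24 h at 37 °C. For MBC, the MIC well and two more-concentrated wells were plated on MHA for 24 h at 37 °C.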

The subject of assay [9] is Mycobacterium smegmatis (MC^2155). To be noted: Mycobacterium (MC^2155). Summed up: as §6
For assay [10], the system named is Staphylococcus aureus: ATCC 6538P. To be noted: ATCC 6538. Summed up: as §6
The test system of assay [11] is Escherichia coli: ATCC 9723H. To be noted: ATCC 9723. Summed up:
as §6

For `CC[C@H](C)[C@H](NC(=O)[C@@H](NC(=O)[C@@H]1CCCN1C(=O)[C@H](Cc1ccccc1)NC(=O)[C@@H](N)Cc1ccccc1)[C@@H](C)CC)C(=O)N[C@@H](C)C(=O)N[C@@H](CCCNC(=N)N)C(=O)N[C@@H](CC(C)C)C(=O)N[C@@H](C)C(=O)N[C@@H](C)C(=O)N[C@@H](CCCCN)C(=O)N[C@H](C(=O)N[C@H](C(=O)N1CCC[C@H]1C(=O)N[C@@H](CO)C(=O)N[C@@H](CC(C)C)C(=O)N[C@H](C(=O)N[C@@H](CS)C(=O)N[C@@H](C)C(=O)N[C@H](C(=O)N[C@H](C(=O)N[C@@H](CCCCN)C(=O)N[C@@H](CCCCN)C(=O)N[C@@H](CS)C(=O)O)[C@@H](C)O)C(C)C)C(C)C)[C@@H](C)CC)C(C)C` [Peptide P5_CCH] (H-FFPIIARLAAKVIPSLVCAVTKKC-OH; N-terminus and C-terminus assumed), the “Minimum Inhibitory Concentration (MIC)” value in assay [1] lay within 8 to 32 µg/mL; in [2] it was 4 to 16 µg/mL; in assay [3], 4 to 32 µg/mL; in [4], 4 to 16 µg/mL; in assay [5], 32 to 128 µg/mL; in the assay on Salmonella Enteritidis, 64 to 128 µg/mL. Also, the “Minimum Inhibitory Concentration (MIC)” value in [6] (Methicillin resistant) was in the range of 2 to 8 µg/mL; in [7] (ATCC 29213), 4 to 8 µg/mL. Besides, the MBC was 128 µg/mL (≈ 49.4 µM) in [8], greater than 256 µg/mL in assay [9], 16 µg/mL (≈ 6.18 µM) in [10] and 32 µg/mL (≈ 12.4 µM) in [11]. Further, the MIC was 128 µg/mL (≈ 49.4 µM) in assay [8], 2 µg/mL (≈ 0.772 µM) in assay [9], 4 µg/mL (≈ 1.54 µM) in assay [10] and 16 µg/mL (≈ 6.18 µM) in assay [11].

For the molecule `CC[C@H](C)[C@H](NC(=O)[C@H](CO)NC(=O)[C@H](CCCCN)NC(=O)CNC(=O)[C@@H](NC(=O)[C@@H](NC(=O)[C@H](CCCCN)NC(=O)[C@@H](NC(=O)[C@@H](NC(=O)[C@H](CCC(=O)O)NC(=O)[C@H](Cc1c[nH]c2ccccc12)NC(=O)[C@H](CC(C)C)NC(=O)CN)[C@@H](C)O)[C@@H](C)CC)[C@@H](C)O)[C@@H](C)O)C(=O)N[C@@H](C)C(=O)N[C@@H](CC(C)C)C(=O)N[C@@H](CC(N)=O)C(=O)N[C@@H](CC(C)C)C(=O)N[C@@H](CC(C)C)C(=O)N[C@@H](CC(=O)O)C(=O)N[C@@H](CCCCN)C(=O)N[C@H](C(=O)N[C@@H](CCCCN)C(=O)N[C@@H](CS)C(=O)N[C@@H](CCCCN)C(=O)N[C@H](C(=O)N[C@@H](C)C(=O)NCC(=O)NCC(=O)N[C@@H](CS)C(=O)N1CCC[C@H]1C(=O)N1CCC[C@H]1C(=O)O)[C@@H](C)CC)[C@@H](C)CC` [Peptide P6_CCH] (H-GLWETIKTTGKSIALNLLDKIKCKIAGGCPP-OH; N-terminus and C-terminus assumed), the “Minimum Inhibitory Concentration (MIC)” value was 8 to 16 µg/mL in assay [1]; 8 µg/mL in [2]; 16 to 32 µg/mL in [3]; 8 to 16 µg/mL in [4]; 64 µg/mL in assay [5]; 64 to 128 µg/mL with Salmonella Enteritidis. In addition, the “Minimum Inhibitory Concentration (MIC)” value in [6] (MRSA, Gram positive) is reported as 128+ ug/mL; in assay [7] (S. aureus ATCC 29213, Gram positive), 128+ ug/mL. Besides, the minimum bactericidal concentration (MBC) in assay [6] (Methicillin resistant) is 256 µg/mL (≈ 78.3 µM); in assay [8] it was 128 µg/mL (≈ 39.1 µM); in assay [10] it was 256 µg/mL (≈ 78.3 µM); in assay [11], 16 to 64 µg/mL. Further, the MIC was 128 µg/mL (≈ 39.1 µM) in [8], 2 µg/mL (≈ 0.612 µM) in [9], 128 to 256 µg/mL in assay [10] and 16 to 64 µg/mL in assay [11].

`CC[C@H](C)[C@H](NC(=O)[C@H](CCCCN)NC(=O)[C@H](CCCCN)NC(=O)CNC(=O)[C@@H](NC(=O)[C@@H](NC(=O)[C@H](CCCCN)NC(=O)[C@@H](NC(=O)[C@@H](NC(=O)[C@H](CCC(=O)O)NC(=O)[C@H](Cc1c[nH]c2ccccc12)NC(=O)[C@H](CC(C)C)NC(=O)CN)[C@@H](C)O)[C@@H](C)CC)[C@@H](C)O)[C@@H](C)O)C(=O)N[C@@H](C)C(=O)N[C@@H](CC(C)C)C(=O)N[C@@H](CC(N)=O)C(=O)N[C@@H](CC(C)C)C(=O)N[C@@H](CC(C)C)C(=O)N[C@@H](CC(=O)O)C(=O)N[C@@H](CCCCN)C(=O)N[C@H](C(=O)N[C@@H](CCCCN)C(=O)N[C@@H](CS)C(=O)N[C@@H](CCCCN)C(=O)N[C@H](C(=O)N[C@@H](C)C(=O)NCC(=O)NCC(=O)N[C@@H](CS)C(=O)N1CCC[C@H]1C(=O)N1CCC[C@H]1C(=O)O)[C@@H](C)CC)[C@@H](C)CC` [Peptide P6_CCH_S12K] (H-GLWETIKTTGKKIALNLLDKIKCKIAGGCPP-OH; N-terminus and C-terminus assumed): the MBC in assay [1] and in assay [4] was 4 µg/mL (≈ 1.21 µM) each time. Besides, the MIC in assay [1] and in [4] was 4 µg/mL (≈ 1.21 µM) in each case. Also, the “Minimum Inhibitory Concentration (MIC)” value in assay [1] is 4 µg/mL; in assay [2], 4 µg/mL; in assay [3], 4 to 8 µg/mL; in assay [4], 4 µg/mL; in assay [5] it was 16 to 32 µg/mL; with Salmonella Enteritidis, 16 to 32 µg/mL. Further, the “Minimum Inhibitory Concentration (MIC)” value in assay [6] (Methicillin resistant) and in [7] (ATCC 29213) was 64 to 128 µg/mL in each case.

On to `CC[C@H](C)[C@H](NC(=O)[C@H](Cc1ccccc1)NC(=O)[C@@H]1CCCN1C(=O)[C@H](CC(C)C)NC(=O)[C@@H](N)Cc1ccccc1)C(=O)N[C@@H](C)C(=O)N[C@@H](CCCNC(=N)N)C(=O)N[C@@H](CC(C)C)C(=O)N[C@@H](C)C(=O)N[C@@H](C)C(=O)N[C@@H](CCCCN)C(=O)N[C@H](C(=O)N[C@@H](Cc1ccccc1)C(=O)N1CCC[C@H]1C(=O)N[C@@H](CO)C(=O)N[C@H](C(=O)N[C@H](C(=O)N[C@@H](CS)C(=O)N[C@@H](CO)C(=O)N[C@H](C(=O)N[C@H](C(=O)N[C@@H](CCCCN)C(=O)N[C@@H](CCCCN)C(=O)N[C@@H](CS)C(=O)O)[C@@H](C)O)C(C)C)[C@@H](C)CC)[C@@H](C)CC)C(C)C` [Ran-4] (H-FLPFIARLAAKVFPSIICSVTKKC-OH; N-terminus and C-terminus assumed), for which the “Minimum Inhibitory Concentration (MIC)” value is 4 to 8 µg/mL in [1]; 4 to 8 µg/mL in assay [2]; 4 to 8 µg/mL in [3]; 2 to 4 µg/mL in assay [4]; 16 to 32 µg/mL in assay [5]; 16 to 32 µg/mL in the assay with Salmonella Enteritidis. Further, the “Minimum Inhibitory Concentration (MIC)” value in assay [6] (Methicillin resistant) and in assay [7] (ATCC 29213) was 64 to 128 µg/mL in each case.
